Experimental findings from ChEMBL document CHEMBL1132818, “Use of bicuculline, a GABA antagonist, as a template for the development of a new class of ligands showing positive allosteric modulation of the GABA(A) receptor” (Bioorg Med Chem Lett, 2000) are described below.

Test [1] addresses T1, GABA-A receptor; alpha-1/beta-2/gamma-2 (Rattus norvegicus) (UniProt P18508+P62813+P63138). The following applies: Oocyte, 1 uM.
Description: Percent GABA current elicited in Xenopus laevis oocytes expressing rat GABA-A alpha-1-beta-2-gamma-2 subunits at 1 uM [(-)inhibition, (+)stimulation]
Test [2] deals with T2, GABA-A receptor; anion channel (Rattus norvegicus) (UniProt O09028+P15431+P18506+P18508+P19969+P20236+P23574+P23576+P28471+P28473+P30191+P62813+P63079+P63138+Q91ZM7+Q9ES14). The test is described as follows: In vitro displacement of [35S]TBPS from Gamma-aminobutyric acid A receptor of rat brain membrane preparations at 10 uM. A general note: Loss of bound radioactivity is the signal in a displacement assay; it reports binding, not function.

The target of test [3] is T2, GABA-A receptor; anion channel (Rattus norvegicus). The test is described as follows: In vitro displacement of [3H]muscimol from Gamma-aminobutyric acid A receptor of rat brain membrane preparations at 100 uM.
Test [4] shares this target. Particulars: Brain, Membrane, 10 nM.
Description: Displacement of [3H]flunitrazepam from GABA-A receptor of rat brain membrane preparations at 10 nM
The target is the same in test [5]. Briefly: Displacement of [3H]flunitrazepam from GABA-A receptor of rat brain membrane preparations at 10 uM.
The target in test [6] is GABA-A receptor; anion channel. Briefly: Displacement of [3H]flunitrazepam from GABA-A receptor of rat cerebellar tissue. It is filed as protein-complex assay.
Test [7] addresses T1, GABA-A receptor; alpha-1/beta-2/gamma-2 (Rattus norvegicus). Briefly: (§1) Percent GABA current elicited in Xenopus laevis oocytes expressing rat GABA-A alpha-1-beta-2-gamma-2 subunits at 100 uM [(-)inhibition, (+)stimulation]. The following applies: Oocyte. It is filed as functional, cell-based.
The target in test [8] is GABA-A receptor; anion channel. Briefly: Displacement of [3H]flunitrazepam from GABA-A receptor of rat forebrain tissue.
For test [9], the target named is T2, GABA-A receptor; anion channel (Rattus norvegicus). Briefly: In vitro displacement of [3H]-muscimol from Gamma-aminobutyric acid A receptor of rat brain membrane preparations at 100 uM (Limited solubility).
For test [10] the target is unchanged. The test is described as follows: In vitro displacement of [3H]muscimol from Gamma-aminobutyric acid A receptor of rat brain membrane preparations at 10 uM.
Test [11] shares this target. The test is described as follows: Displacement of [3H]flunitrazepam from GABA-A receptor of rat brain membrane preparations at 100uM, Limited solubility.
Test [12] shares this target. The test is described as follows: In vitro displacement of [35S]TBPS from Gamma-aminobutyric acid A receptor of rat brain membrane preparations at 100 uM.
For test [13] the target is unchanged. The test is described as follows: Displacement of [3H]flunitrazepam from GABA-A receptor of rat brain membrane preparations at 100 uM.
The nature of test [14]: as §1. The test is classed as functional, Oocyte.
The target of test [15] is T2, GABA-A receptor; anion channel (Rattus norvegicus). The test is described as follows: In vitro displacement of [35S]TBPS from Gamma-aminobutyric acid A receptor of rat brain membrane preparations at 100 uM (Limited solubility).
For test [16], the target named is T1, GABA-A receptor; alpha-1/beta-2/gamma-2 (Rattus norvegicus). The test is described as follows: Percent GABA current elicited in Xenopus laevis oocytes expressing rat GABA-A alpha-1-beta-2-gamma-2 subunits at 50 uM [(-)inhibition, (+)stimulation]. The following applies: Oocyte. The test is classed as functional, cell-based.
Test [17] has the same target. Briefly: Percent GABA current elicited in Xenopus laevis oocytes expressing rat GABA-A alpha-1-beta-2-gamma-2 subunits at 10 uM [(-)inhibition, (+)stimulation]. The test is classed as functional, cell-based. The following applies: Oocyte.

As for `CN1C(=O)CN=C(c2ccccc2)c2cc(Cl)ccc21`, the GABA current in [1] was 300%. Moreover, the results for the Displacement in test [2], in test [3] and in [4] were 25%, -13% and 33%, respectively.

As a reminder, the IC50 is the concentration at which inhibition is half-maximal. Turning to `CC1=C[C@H]([C@@H]2c3ccccc3CCN2C(=O)OCc2ccccc2)OC1=O`, the Displacement in [2] was 20%; in test [5], 27%; in test [9], “Insoluble”; in [10], -4%; in test [11], “Insoluble”. Further, the 50% inhibitory concentration (IC50) worked out at 17 µM in test [6] and 25 µM in test [8]. The GABA current in [7] amounted to 208%.

In the case of `CC1=C[C@@H]([C@@H]2c3cc4c(cc3CCN2C)OCO4)OC1=O`, the values for the Displacement in [12], in test [13] and in test [3] were 3%, 21% and 3%, respectively. In addition, in test [14], the GABA current was -3%.

As to `COc1cc2c(cc1OC)[C@@H]([C@H]1C=C(C)C(=O)O1)N(C)CC2`, the Displacement in [12] is 4%; in [13], 12%; in [3], -1%. The GABA current in test [7] is -10%.

As for `COc1cc2c(cc1OC)[C@@H]([C@H]1C=C(C)C(=O)O1)N(C(=O)OCc1ccccc1)CC2`, the Displacement in test [12] is 63%; in test [13], 31%; in test [3] it was -23%. The GABA current in test [7] was found to be 60%.

On to `COc1cc2c(cc1OC)[C@@H]([C@@H]1C=C(C)C(=O)O1)N(C)CC2`, for which the results for the Displacement in [12], in test [13] and in test [3] were 2%, 8% and 4%, respectively. In addition, the GABA current in [7] is -8%.

Turning to `COc1cc2c(cc1OC)[C@@H]([C@@H]1C=C(C)C(=O)O1)N(C(=O)OCc1ccccc1)CC2`, the Displacement in test [12] is 11%; in test [13], 4%; in test [3] it was -1%. Moreover, the GABA current in test [7] stood at 24%.

As for `O=C1C=C[C@H]([C@@H]2c3cc4c(cc3CCN2C(=O)OCc2ccccc2)OCO4)O1`, the Displacement result in test [15] is “Insoluble”; in [2], 18%; in [5], 27%; in test [9], “Insoluble”; in test [10], -7%. Further, the GABA current in test [16] was found to be 128%.

Consider `O=C1C=C[C@H]([C@@H]2c3ccccc3CCN2C(=O)OCc2ccccc2)O1`, for which the Displacement is 85% in [12]; 18% in test [2]; 51% in test [5]; -2% in test [3]; -9% in [10]. Moreover, in [7], the GABA current was determined as 225%.

In the case of `O=C1CC[C@@H]([C@@H]2c3ccccc3CCN2C(=O)OCc2ccccc2)O1`, the Displacement was 82% in [12]; 11% in test [2]; 96% in [5]; -2% in test [3]; -18% in [10]. The IC50 amounted to 0.06 µM in test [6] and 0.16 µM in [8]. In addition, the GABA current came to 351% in test [7] and 111% in test [17].

In the case of `O=C1C=C[C@@H]([C@@H]2c3ccccc3CCN2C(=O)OCc2ccccc2)O1`, the Displacement in [12] was 82%; in test [2], 14%; in test [5], 93%; in [3], -13%; in test [10] it was -12%. The GABA current in test [7] came to 281%.

`CN1CCc2cc3c(cc2[C@H]1[C@@H]1OC(=O)c2c1ccc1c2OCO1)OCO3`: the Displacement in test [12] is -1%; in [13], 7%; in test [10], 45%. Moreover, the GABA current in test [7] is -100%.

For `CC1=C[C@H]([C@@H]2c3cc4c(cc3CCN2C)OCO4)OC1=O`, the Displacement in test [12] turned out to be 3%; in test [13] it was 30%; in test [2], 1%; in test [5] it was 6%; in test [3], 5%. The GABA current in [7] was -7%.

For `CC1=C[C@@H]([C@@H]2c3ccccc3CCN2C(=O)OCc2ccccc2)OC1=O`, the Displacement in [2] is 16%; in test [5], 43%; in test [9], “Insoluble”; in test [10] it was -7%. In addition, the IC50 is 7 µM in [6] and 12 µM in [8]. In addition, the GABA current in test [7] was determined as 130%.

In the case of `COc1cc2c(cc1OC)[C@@H]([C@@H]1C=CC(=O)O1)N(C(=O)OCc1ccccc1)CC2`, the Displacement in test [12] was 47%; in [13] it was 15%; in test [2], 5%; in test [5], 5%; in test [3], -1%. The GABA current in test [7] is 20%.

With `COc1cc2c(cc1OC)[C@@H]([C@H]1C=CC(=O)O1)N(C(=O)OCc1ccccc1)CC2`, the Displacement is 50% in test [12]; 51% in test [13]; 5% in test [2]; 15% in test [5]; 10% in [3]; 7% in test [10]. The GABA current in test [7] came to 43%.

For the molecule `O=C1C=C[C@@H]([C@@H]2c3cc4c(cc3CCN2C(=O)OCc2ccccc2)OCO4)O1`, the Displacement result is “Insoluble” in test [15]; 19% in test [2]; 20% in test [5]; “Insoluble” in [9]; -5% in test [10]. Also, the GABA current in test [16] stood at 215%.
